Test systems include EKVX NSCLC; HCC-2998 colon; HOP-92 NSCLC; K-562 leukemia; MALME-3M melanoma; MDA-MB-435; OVCAR-4 ovarian; OVCAR-5 ovarian; OVCAR-8 ovarian; SF-539 CNS.
Test in all cases: inhibition of tumour cell growth, NCI panel, 48 h

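Five compound concentrations were applied to cells in 96-well plates for 48 hours; endpoints were derived by simple linear interpolation of the resulting dose-response curve. Here, GI50 denotes the concentration required for 50% inhibition of growth. At the TGI there is no net growth.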

As for `CCc1ccc2c(c1)C(=O)c1c-2n(CCCN=[N+]=[N-])c(=O)c2cc([N+](=O)[O-])ccc12`, the GI50 in the assay with EKVX NSCLC, in the assay on HCC-2998 colon, with HOP-92 NSCLC, in the assay with K-562 leukemia, in the assay with MALME-3M melanoma and in the assay on MDA-MB-435 was more than 50 µM throughout. The GI50 in the assay with OVCAR-4 ovarian was 49.6 µM; in the assay on OVCAR-5 ovarian, more than 50 µM; in the assay on OVCAR-8 ovarian it was more than 50 µM; with SF-539 CNS, more than 50 µM. Besides, the TGI in the assay on EKVX NSCLC, with HCC-2998 colon, in the assay on HOP-92 NSCLC, in the assay with K-562 leukemia, in the assay with MALME-3M melanoma and with MDA-MB-435 was more than 50 µM each time. For the same compound, the TGI with OVCAR-4 ovarian, in the assay with OVCAR-5 ovarian, in the assay with OVCAR-8 ovarian and in the assay with SF-539 CNS was more than 50 µM throughout.
Regarding `NNCCc1ccc(NC(=O)CCCc2ccc(C(=O)Nc3ccccc3N)cc2)cc1`, the GI50 with EKVX NSCLC was 51.1 µM; in the assay on HCC-2998 colon it was 18 µM; in the assay on HOP-92 NSCLC, 7.26 µM; in the assay with K-562 leukemia it was 3.58 µM; in the assay on MALME-3M melanoma, 2.71 µM; in the assay with MDA-MB-435, 9.71 µM. The GI50 in the assay with OVCAR-4 ovarian was 42.4 µM; with OVCAR-5 ovarian it was 8.15 µM; with OVCAR-8 ovarian it was 8.52 µM; with SF-539 CNS, 9.57 µM. Further, the TGI in the assay on EKVX NSCLC is more than 100 µM; in the assay with HCC-2998 colon, more than 100 µM; in the assay on HOP-92 NSCLC, more than 100 µM; in the assay on K-562 leukemia, more than 100 µM; in the assay with MALME-3M melanoma, 50.8 µM; in the assay on MDA-MB-435, more than 100 µM. The TGI in the assay with OVCAR-4 ovarian, with OVCAR-5 ovarian, in the assay with OVCAR-8 ovarian and in the assay with SF-539 CNS was more than 100 µM throughout.
Regarding `CCCc1cc(=O)n2c(C(=O)Nc3ccc(Cl)cc3C)c(C(=O)Nc3ccc(F)cc3)sc2n1`, the GI50 in the assay on EKVX NSCLC was 21.3 µM; in the assay with HCC-2998 colon it was 96.6 µM; in the assay on HOP-92 NSCLC, 0.166 µM; in the assay on K-562 leukemia, 1.08 µM; in the assay with MALME-3M melanoma it was 5.12 µM; in the assay on MDA-MB-435 it was 20.9 µM. Moreover, the GI50 is 2.57 µM with OVCAR-4 ovarian, 53.9 µM with OVCAR-5 ovarian, 2.05 µM in the assay with OVCAR-8 ovarian and 6.02 µM with SF-539 CNS. The TGI in the assay on EKVX NSCLC is more than 150 µM; with HCC-2998 colon, more than 150 µM; in the assay on HOP-92 NSCLC, 0.989 µM; in the assay on K-562 leukemia, 20.3 µM; with MALME-3M melanoma, 20.7 µM; with MDA-MB-435, more than 150 µM. Besides, the TGI with OVCAR-4 ovarian is 6.25 µM; in the assay with OVCAR-5 ovarian, more than 150 µM; in the assay with OVCAR-8 ovarian, 5.14 µM; with SF-539 CNS it was 22.7 µM.
`Nc1cc2c(cc1Br)[nH]c(=O)c1ccccc12`: the GI50 in the assay with EKVX NSCLC is 4.18 µM; with HCC-2998 colon, 5.5 µM; in the assay on HOP-92 NSCLC, 3.81 µM; with K-562 leukemia, 5.78 µM; with MALME-3M melanoma, 2.17 µM; in the assay on MDA-MB-435, 1.91 µM. Further, the GI50 was 2.55 µM with OVCAR-4 ovarian, 6.91 µM in the assay on OVCAR-5 ovarian, 3.37 µM in the assay on OVCAR-8 ovarian and 15.1 µM in the assay on SF-539 CNS. Further, the TGI in the assay on EKVX NSCLC was 35.1 µM; in the assay on HCC-2998 colon it was 17.1 µM; with HOP-92 NSCLC, 41.8 µM; in the assay on K-562 leukemia, more than 100 µM; in the assay with MALME-3M melanoma it was 4.78 µM; in the assay on MDA-MB-435, 3.57 µM. Besides, the TGI in the assay with OVCAR-4 ovarian was 38.5 µM; in the assay on OVCAR-5 ovarian it was 41.1 µM; in the assay with OVCAR-8 ovarian, more than 100 µM; in the assay on SF-539 CNS, 49.3 µM.
As for `ClC(Cl)=C1C(=C(Cl)Cl)C(Cl)(Cl)C1(Cl)Cl`, the TGI was 16.6 µM with EKVX NSCLC; 13.7 µM with HCC-2998 colon; 4.5 µM in the assay with HOP-92 NSCLC; 5.62 µM in the assay with K-562 leukemia; 5.9 µM with MALME-3M melanoma; 14 µM in the assay on MDA-MB-435. Besides, the TGI with OVCAR-4 ovarian came to 16 µM; with OVCAR-5 ovarian it was 6.25 µM; with OVCAR-8 ovarian, 18.7 µM; in the assay with SF-539 CNS, 6.08 µM. For the same compound, the GI50 in the assay with K-562 leukemia is 0.532 µM.
Take `O=C(Nc1cc(Cl)ccc1O)c1ccc(Nc2ccnc(C(F)(F)F)c2)cc1`: the GI50 was 2.84 µM with EKVX NSCLC; 3.73 µM with HCC-2998 colon; 2.24 µM with HOP-92 NSCLC; 2.89 µM in the assay on K-562 leukemia; 1.79 µM in the assay on MALME-3M melanoma; 2.95 µM in the assay with MDA-MB-435. Further, the GI50 was 3.56 µM in the assay on OVCAR-4 ovarian, 3.61 µM in the assay on OVCAR-5 ovarian, 4.54 µM in the assay with OVCAR-8 ovarian and 3.29 µM in the assay on SF-539 CNS. Moreover, the TGI was 9.63 µM in the assay with EKVX NSCLC; more than 100 µM in the assay with HCC-2998 colon; 6.12 µM in the assay on HOP-92 NSCLC; more than 100 µM in the assay on K-562 leukemia; 5.49 µM with MALME-3M melanoma; 9.53 µM with MDA-MB-435. Further, the TGI with OVCAR-4 ovarian, in the assay with OVCAR-5 ovarian, in the assay with OVCAR-8 ovarian and in the assay on SF-539 CNS was more than 100 µM in each case.
In the case of `COc1ccc(/C(C)=C(\c2ccc(OCCN3CCCCCC3)cc2)c2ccc(OC(=O)C3CCCCC3)cc2)cc1`, the GI50 with EKVX NSCLC was 1.39 µM; with HCC-2998 colon, 1.24 µM; in the assay with HOP-92 NSCLC it was 0.813 µM; with K-562 leukemia it was 0.356 µM; in the assay on MALME-3M melanoma, 0.517 µM; in the assay with MDA-MB-435, 1.57 µM. Further, the GI50 was 0.785 µM in the assay with OVCAR-4 ovarian, 1.41 µM in the assay on OVCAR-5 ovarian, 2.04 µM in the assay with OVCAR-8 ovarian and 0.833 µM in the assay with SF-539 CNS. The TGI with EKVX NSCLC worked out at 5.48 µM; with HCC-2998 colon it was 3.36 µM; in the assay with HOP-92 NSCLC, 2.76 µM; in the assay with K-562 leukemia it was 6.14 µM; in the assay with MALME-3M melanoma, 2.14 µM; in the assay with MDA-MB-435, 3.38 µM. For the same compound, the TGI with OVCAR-4 ovarian was determined as 3.35 µM; in the assay on OVCAR-5 ovarian it was 3.44 µM; in the assay with OVCAR-8 ovarian, 5.9 µM; with SF-539 CNS, 2.74 µM.
For the compound `O=C(/C(=C\c1c(-c2ccccc2)[nH]c2ccccc12)S(=O)(=O)c1ccccc1)c1ccccc1`, the GI50 is 4.56 µM with EKVX NSCLC; more than 100 µM in the assay with HCC-2998 colon; 4.95 µM with HOP-92 NSCLC; 6.53 µM with K-562 leukemia; more than 100 µM in the assay on MALME-3M melanoma; 3.94 µM in the assay on MDA-MB-435. Further, the GI50 was 6.58 µM with OVCAR-4 ovarian, more than 100 µM in the assay on OVCAR-5 ovarian, more than 100 µM in the assay on OVCAR-8 ovarian and more than 100 µM in the assay with SF-539 CNS. Moreover, the TGI in the assay with EKVX NSCLC, with HCC-2998 colon, in the assay with HOP-92 NSCLC, with K-562 leukemia, in the assay on MALME-3M melanoma and with MDA-MB-435 was more than 100 µM each time. Besides, the TGI in the assay with OVCAR-4 ovarian, with OVCAR-5 ovarian, in the assay on OVCAR-8 ovarian and with SF-539 CNS was more than 100 µM in each case.
